Data set [1] in a line: mn = molality of the nth substance listed, in mol/kg. The settings on record: 84.51 kPa, Liquid; for speed of sound: Frequency=3 MHz, Sing-around technique in a fixed-path interferometer; for mass density: Vibrating tube method.
For data set [2] the following is noted: 313.15 K; 84.51 kPa; Liquid; Frequency=3 MHz; Sing-around technique in a fixed-path interferometer.

The structures appear in SMILES notation. Numbers after ± are expanded uncertainties.

Broadly, the speed of sound is how fast a sound wave travels through the sample. The mass density is the mass of a sample divided by its volume. With `Cl.N` [ammonium chloride (NH4Cl)] + O, the speed of sound in data set [1] (288.15 K, m1 = 0.035) is 1468.2 ± 1.4 m/s; in data set [1] (293.15 K, m1 = 0.035), 1484.2 ± 1.4 m/s; in data set [1] (298.15 K, m1 = 0.035), 1498.4 ± 1.4 m/s; in data set [1] (303.15 K, m1 = 0.035), 1510.7 ± 1.4 m/s; in data set [1] (308.15 K, m1 = 0.035), 1521.3 ± 1.4 m/s; in data set [1] (313.15 K, m1 = 0.035), 1530.4 ± 1.4 m/s. Also, the mass density is reported as 999.719 ± 0.17 kg/m3 in data set [1] (288.15 K, m1 = 0.035); 998.814 ± 0.17 kg/m3 in data set [1] (293.15 K, m1 = 0.035); 997.645 ± 0.17 kg/m3 in data set [1] (298.15 K, m1 = 0.035); 996.243 ± 0.17 kg/m3 in data set [1] (303.15 K, m1 = 0.035); 994.624 ± 0.18 kg/m3 in data set [1] (308.15 K, m1 = 0.035); 992.807 ± 0.18 kg/m3 in data set [1] (313.15 K, m1 = 0.035).

Regarding `[Cl][Fe]([Cl])[Cl]` [ferric chloride] + O, the speed of sound was determined as 1470.9 ± 1.5 m/s in data set [1] (288.15 K, m1 = 0.035); 1486.8 ± 1.5 m/s in data set [1] (293.15 K, m1 = 0.035); 1500.8 ± 1.5 m/s in data set [1] (298.15 K, m1 = 0.035); 1513 ± 1.5 m/s in data set [1] (303.15 K, m1 = 0.035); 1523.5 ± 1.5 m/s in data set [1] (308.15 K, m1 = 0.035); 1532.4 ± 1.5 m/s in data set [1] (313.15 K, m1 = 0.035). The mass density in data set [1] (288.15 K, m1 = 0.035) was determined as 1003.96 ± 0.2 kg/m3; in data set [1] (293.15 K, m1 = 0.035), 1003.05 ± 0.2 kg/m3; in data set [1] (298.15 K, m1 = 0.035), 1001.87 ± 0.2 kg/m3; in data set [1] (303.15 K, m1 = 0.035) it was 1000.46 ± 0.2 kg/m3; in data set [1] (308.15 K, m1 = 0.035), 998.83 ± 0.2 kg/m3; in data set [1] (313.15 K, m1 = 0.035), 997.003 ± 0.2 kg/m3.

For the compound `[Cl-].[Cl-].[Mg+2]` [magnesium chloride] + O, the speed of sound in data set [1] (288.15 K, m1 = 0.035) was 1471.1 ± 1.6 m/s; in data set [1] (293.15 K, m1 = 0.035) it was 1487.1 ± 1.6 m/s; in data set [1] (298.15 K, m1 = 0.035), 1501.3 ± 1.6 m/s; in data set [1] (303.15 K, m1 = 0.035), 1513.5 ± 1.6 m/s; in data set [1] (308.15 K, m1 = 0.035) it was 1524 ± 1.6 m/s. The mass density worked out at 1002.4 ± 0.26 kg/m3 in data set [1] (288.15 K, m1 = 0.035); 1001.48 ± 0.26 kg/m3 in data set [1] (293.15 K, m1 = 0.035); 1000.31 ± 0.26 kg/m3 in data set [1] (298.15 K, m1 = 0.035); 998.899 ± 0.26 kg/m3 in data set [1] (303.15 K, m1 = 0.035); 997.276 ± 0.26 kg/m3 in data set [1] (308.15 K, m1 = 0.035); 995.455 ± 0.26 kg/m3 in data set [1] (313.15 K, m1 = 0.035).

In the case of `[Cl-].[K+]` [potassium chloride] + O, the speed of sound is recorded as 1468.5 ± 1.5 m/s in data set [1] (288.15 K, m1 = 0.035); 1484.5 ± 1.5 m/s in data set [1] (293.15 K, m1 = 0.035); 1498.7 ± 1.5 m/s in data set [1] (298.15 K, m1 = 0.035); 1510.9 ± 1.5 m/s in data set [1] (303.15 K, m1 = 0.035); 1521.5 ± 1.5 m/s in data set [1] (308.15 K, m1 = 0.035); 1530.5 ± 1.5 m/s in data set [1] (313.15 K, m1 = 0.035). Further, the mass density came to 1000.79 ± 0.2 kg/m3 in data set [1] (288.15 K, m1 = 0.035); 999.873 ± 0.2 kg/m3 in data set [1] (293.15 K, m1 = 0.035); 998.698 ± 0.2 kg/m3 in data set [1] (298.15 K, m1 = 0.035); 997.288 ± 0.2 kg/m3 in data set [1] (303.15 K, m1 = 0.035); 995.661 ± 0.2 kg/m3 in data set [1] (308.15 K, m1 = 0.035); 993.836 ± 0.2 kg/m3 in data set [1] (313.15 K, m1 = 0.035).

As for `O=C([O-])[O-].[Na+].[Na+]` [sodium carbonate] + O, the speed of sound in data set [1] (288.15 K, m1 = 0.035) amounted to 1473.1 ± 1.4 m/s; in data set [1] (293.15 K, m1 = 0.035), 1489.1 ± 1.4 m/s; in data set [1] (298.15 K, m1 = 0.035), 1503 ± 1.4 m/s; in data set [1] (303.15 K, m1 = 0.035) it was 1515.2 ± 1.4 m/s; in data set [1] (308.15 K, m1 = 0.035), 1525.7 ± 1.4 m/s; in data set [1] (313.15 K, m1 = 0.035), 1534.6 ± 1.4 m/s. Also, the mass density is listed as 1003.04 ± 0.17 kg/m3 in data set [1] (288.15 K, m1 = 0.035); 1002.09 ± 0.17 kg/m3 in data set [1] (293.15 K, m1 = 0.035); 1000.88 ± 0.17 kg/m3 in data set [1] (298.15 K, m1 = 0.035); 999.439 ± 0.17 kg/m3 in data set [1] (303.15 K, m1 = 0.035); 997.791 ± 0.17 kg/m3 in data set [1] (308.15 K, m1 = 0.035); 995.95 ± 0.17 kg/m3 in data set [1] (313.15 K, m1 = 0.035).

For `[Cl-].[Na+]` [sodium chloride] + O, the speed of sound stood at 1468.8 ± 1.5 m/s in data set [1] (288.15 K, m1 = 0.035); 1484.9 ± 1.5 m/s in data set [1] (293.15 K, m1 = 0.035); 1511.3 ± 1.5 m/s in data set [1] (303.15 K, m1 = 0.035); 1521.9 ± 1.5 m/s in data set [1] (308.15 K, m1 = 0.035); 1530.9 ± 1.5 m/s in data set [1] (313.15 K, m1 = 0.035). The mass density in data set [1] (288.15 K, m1 = 0.035) was found to be 1000.55 ± 0.2 kg/m3; in data set [1] (293.15 K, m1 = 0.035) it was 999.636 ± 0.2 kg/m3; in data set [1] (298.15 K, m1 = 0.035) it was 998.457 ± 0.2 kg/m3; in data set [1] (303.15 K, m1 = 0.035), 997.046 ± 0.2 kg/m3; in data set [1] (308.15 K, m1 = 0.035), 995.419 ± 0.2 kg/m3; in data set [1] (313.15 K, m1 = 0.035), 993.592 ± 0.2 kg/m3.

For the compound `O=[N+]([O-])[O-].[Na+]` [sodium nitrate] + O, the speed of sound in data set [1] (288.15 K, m1 = 0.035) is 1468.2 ± 1.5 m/s; in data set [1] (293.15 K, m1 = 0.035), 1484.2 ± 1.5 m/s; in data set [1] (298.15 K, m1 = 0.035), 1498.3 ± 1.5 m/s; in data set [1] (303.15 K, m1 = 0.035), 1510.5 ± 1.5 m/s; in data set [1] (308.15 K, m1 = 0.035), 1521.1 ± 1.5 m/s; in data set [1] (313.15 K, m1 = 0.035), 1530.1 ± 1.5 m/s. Besides, the mass density in data set [1] (288.15 K, m1 = 0.035) turned out to be 1001.14 ± 0.2 kg/m3; in data set [1] (293.15 K, m1 = 0.035) it was 1000.21 ± 0.2 kg/m3; in data set [1] (298.15 K, m1 = 0.035), 999.017 ± 0.2 kg/m3; in data set [1] (303.15 K, m1 = 0.035), 997.592 ± 0.2 kg/m3; in data set [1] (308.15 K, m1 = 0.035), 995.954 ± 0.2 kg/m3; in data set [1] (313.15 K, m1 = 0.035), 994.12 ± 0.2 kg/m3.

In the case of `O=S(=O)([O-])[O-].[Na+].[Na+]` [sodium sulfate] + O, the speed of sound is recorded as 1472.6 ± 1.6 m/s in data set [1] (288.15 K, m1 = 0.035); 1488.6 ± 1.6 m/s in data set [1] (293.15 K, m1 = 0.035); 1502.6 ± 1.6 m/s in data set [1] (298.15 K, m1 = 0.035); 1514.8 ± 1.6 m/s in data set [1] (303.15 K, m1 = 0.035); 1525.3 ± 1.6 m/s in data set [1] (308.15 K, m1 = 0.035); 1534.2 ± 1.6 m/s in data set [1] (313.15 K, m1 = 0.035). The mass density in data set [1] (288.15 K, m1 = 0.035) stood at 1003.68 ± 0.26 kg/m3; in data set [1] (293.15 K, m1 = 0.035) it was 1002.73 ± 0.26 kg/m3; in data set [1] (298.15 K, m1 = 0.035) it was 1001.52 ± 0.26 kg/m3; in data set [1] (303.15 K, m1 = 0.035) it was 1000.09 ± 0.26 kg/m3; in data set [1] (308.15 K, m1 = 0.035) it was 998.436 ± 0.26 kg/m3; in data set [1] (313.15 K, m1 = 0.035), 996.589 ± 0.26 kg/m3.

For the compound `C[N+](C)(C)C.[Cl-]` [tetramethylammonium chloride] + O, the speed of sound in data set [1] (288.15 K, m1 = 0.035) came out at 1470.2 ± 1.8 m/s; in data set [1] (293.15 K, m1 = 0.035), 1486.1 ± 1.9 m/s; in data set [1] (298.15 K, m1 = 0.035), 1500.1 ± 1.9 m/s; in data set [1] (303.15 K, m1 = 0.035), 1512.3 ± 1.9 m/s; in data set [1] (308.15 K, m1 = 0.035) it was 1522.8 ± 1.9 m/s; in data set [1] (313.15 K, m1 = 0.035), 1531.7 ± 1.9 m/s. In addition, the mass density in data set [1] (288.15 K, m1 = 0.035) is recorded as 999.201 ± 0.42 kg/m3; in data set [1] (293.15 K, m1 = 0.035), 998.29 ± 0.42 kg/m3; in data set [1] (298.15 K, m1 = 0.035), 997.12 ± 0.42 kg/m3; in data set [1] (303.15 K, m1 = 0.035), 995.716 ± 0.42 kg/m3; in data set [1] (308.15 K, m1 = 0.035), 994.093 ± 0.42 kg/m3; in data set [1] (313.15 K, m1 = 0.035), 992.272 ± 0.42 kg/m3.

In the case of `O=C([O-])CC(O)(CC(=O)[O-])C(=O)[O-].[Na+].[Na+].[Na+]` [trisodium citrate] + O, the speed of sound in data set [1] (288.15 K, m1 = 0.035) is listed as 1474.7 ± 1.6 m/s; in data set [1] (293.15 K, m1 = 0.035), 1490.6 ± 1.6 m/s; in data set [1] (298.15 K, m1 = 0.035), 1504.5 ± 1.6 m/s; in data set [1] (303.15 K, m1 = 0.035), 1516.7 ± 1.6 m/s; in data set [1] (308.15 K, m1 = 0.035), 1527.1 ± 1.6 m/s; in data set [1] (313.15 K, m1 = 0.035) it was 1536 ± 1.6 m/s. Also, the mass density in data set [1] (288.15 K, m1 = 0.035) stood at 1005.71 ± 0.26 kg/m3; in data set [1] (293.15 K, m1 = 0.035) it was 1004.75 ± 0.26 kg/m3; in data set [1] (298.15 K, m1 = 0.035), 1003.53 ± 0.26 kg/m3; in data set [1] (303.15 K, m1 = 0.035), 1002.08 ± 0.26 kg/m3; in data set [1] (308.15 K, m1 = 0.035), 1000.42 ± 0.26 kg/m3; in data set [1] (313.15 K, m1 = 0.035) it was 998.572 ± 0.26 kg/m3.

As for `O` [water], in data set [2], the speed of sound amounted to 1529.2 ± 1.2 m/s.

Turning to `O` [water] + CCCCCCCCCCCCn1cc[n+](C)c1.[Br-], the speed of sound in data set [1] (313.15 K, m2 = 0) is 1529.2 ± 1.2 m/s.

(Values after the NIST ThermoML archive (doi:10.1016/j.jct.2014.03.001).)
